Earlier results in patent US7645767B2, “Pharmaceutical compositions for treating chronic pain and pain associated with neuropathy” (Trinity Laboratories, Inc., priority 2006, dated 2010).

Assays:
[1] = for accumulation during multiple dose treatment: multiple dose treatment with tramadol
μ-opiate receptors = μ-opiate receptors (Homo sapiens, UniProt P35372)
[2] = test system: complex regional pain syndrome and neuropathic pain

Chain of μ-opiate receptors (P35372 whole entry): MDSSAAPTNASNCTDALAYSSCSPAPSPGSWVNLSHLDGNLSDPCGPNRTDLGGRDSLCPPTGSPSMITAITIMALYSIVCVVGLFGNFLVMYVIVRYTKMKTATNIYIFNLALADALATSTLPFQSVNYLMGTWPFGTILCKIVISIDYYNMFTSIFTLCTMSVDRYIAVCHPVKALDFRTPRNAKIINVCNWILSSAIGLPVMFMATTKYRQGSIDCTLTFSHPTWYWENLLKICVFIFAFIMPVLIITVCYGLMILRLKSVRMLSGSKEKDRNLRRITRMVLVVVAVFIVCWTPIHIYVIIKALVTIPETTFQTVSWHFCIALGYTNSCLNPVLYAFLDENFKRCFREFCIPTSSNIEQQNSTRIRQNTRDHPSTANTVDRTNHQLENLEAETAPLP

SMILES	half-life ([1]; after a single oral dose of 100 mg tramadol, 2-compartmental elimination) [h]	accumulation during multiple dose treatment [1]	analgesic potency compared with parent drug (analgesic effect; relative to tramadol)	time to peak serum concentrations ([1]; after oral administration) [h]	duration of the analgesic effect (analgesic effect; after a single oral dose of tramadol 100 mg)	affinity for μ-opiate receptors, fold less than codeine (μ-opiate receptors; relative to codeine) [fold]	affinity for μ-opiate receptors, fold less than d-propoxyphene (μ-opiate receptors; relative to d-propoxyphene) [fold]	affinity for μ-opiate receptors compared with dextromethorphan (μ-opiate receptors; relative to dextromethorphan)	affinity for μ-opiate receptors, fold less than morphine (μ-opiate receptors; relative to morphine)	duration of sustained analgesia ([2]; capsaicin concentration 5-10% under regional anesthesia) [weeks]	dropout rates due to burning pain at the site of application ([2]; topical capsaicin trials) [%]	absorption in the jejunum (oral dosing of rats, after 3 hours) [%]	time to distribution to brain, spinal cord, liver and blood (rats, i.v. administration) [min]
CN(C)C[C@H]1CCCC[C@]1(O)c1cccc(O)c1 [O-desmethyltramadol]	9	approximately 2 fold	at least twice										
COc1cccc(C2(O)CCCCC2CN(C)C)c1 (racemic) [tramadol, (+/−)-trans (RR,SS)-2-[(dimethylamino)methyl]-1-(3-methoxyphenyl)cyclohexanol]		approximately 2 fold		≤ 2	about 6 hours	10	100	equivalent	6,000 fold				
COc1cc(CNC(=O)CCCCC=CC(C)C)ccc1O [capsaicin, 8-methyl-N-vanillyl-6-nonenamide]										1 to 8	33 to 67	85	≤ 20
